No end group written: not given here.
How the values were obtained:
[1] = tested on: P. xylostella fat body and midgut transcriptome; experiment: RNA sequencing of fat body and midgut after injection of sPxsNPF-1 or sCvsNPF; assay type: in vivo, Plutella xylostella
Experimental: The fat body and midgut of the 4 M instar P. xylostella larvae were dissected under the microscope in PBS on ice. Total RNA was isolated using an RNA isolater Total RNA Extraction Reagent (Vazyme) according to the manufacturer’s instructions. The quality and the concentration of the isolated total RNA were estimated by electrophoresis and a NanoDrop 2000. The transcriptome sequencing was performed at Annoroad Gene Technology. cDNA libraries for transcriptome sequencing made from the total RNA were prepared using the NEBNext Ultra RNA Library Prep Kit for Illumina in conjunction with the NEBNext Poly (A) mRNA Magnetic Isolation Module. Libraries were validated and quantified before being pooled and sequenced on an Illumina HiSeq 2000 (Illumina) sequencer with a 150 bp paired-end protocol. The raw reads were filtered by removing adaptor sequences, empty reads and low-quality sequences (reads with unknown sequences ‘N’). Sequences were de novo assembled using Trinity on a Galaxy Portal, and both ends were sequenced. The fragments per kilobase of transcript per million mapped reads (FPKM) method was used to analyse the expression profiles of all unigenes in different samples. Read counts were input into DESeq2 to calculate differential gene expression and statistical significance. […]

PxsNPFR [2] = experiment: qPCR of PxHK / PxGP upon synthetic sNPF with dsPxsNPFR treatment; assay type: in vivo, Plutella xylostella; settings: non-parasitised larvae, 3L, 0.5 ng sPxsNPF-1 + dsPxsNPFR; n = 6-7; words
Excerpt: (§1) To analyse gene expression in different tissues, P. xylostella larvae were dissected under the microscope, followed by the collection of the silk gland, fat body, midgut, haemocytes and central nervous system (CNS, brain and ventral nerve cord). Haemocytes were collected on clean Parafilm membranes with capillaries by bleeding the larvae from a cut proleg. To explore gene expression at different instars of parasitised or non-parasitised larvae, non-parasitised larva was isolated individually using RNA-easy Isolation Reagent (Vazyme). Parasitoid larvae were removed before parasitised hosts were isolated. As for the measurement of other experiments, per larva with different treatments was isolated individually using RNA-easy Isolation Reagent according to the manufacturer’s instructions.
The quality and concentrations of total RNAs were estimated by electrophoresis and NanoDrop 2000 spectrophotometer (Thermo Fisher Scientific). […] Relative gene expression levels were calculated using the 2^−ΔΔCt method. […]
DNA fragments of ∼500 bp in size were amplified by PCR. […] Synthetic dsRNA was confirmed by an agarose gel, and the concentration was determined by NanoDrop2000 spectrophotometer (Thermo Scientific). About 500 ng of dsRNA was injected into P. xylostella larvae 72 h post-parasitisation, and the RNAi efficiency was detected 48 h post-injection by qPCR. […]

[3] = tested on: PxGP, PxHK and PxTPS mRNA; experiment: qPCR of PxGP, PxHK, PxTPS in larvae injected with synthetic sNPF, venom, CvBV or teratocytes; assay type: in vivo, Plutella xylostella; settings: 0.5 ng synthetic peptide, larvae whole body, 4L; n = 7-8; words
Excerpt: as §1
The quality and concentrations of total RNAs were estimated by electrophoresis and NanoDrop 2000 spectrophotometer (Thermo Fisher Scientific). First-strand cDNAs were synthesised using the ReverTra Ace qPCR RT kit (Toyobo) according to the manufacturer’s instructions. Both β-actin (GenBank Acc. No.: AB282645) and β-tubulin (GenBank Acc. No.: EU127912) of P. xylostella were used as internal controls. Primer sequences used for qPCR analysis are shown in Appendix Table S4. qPCR was performed by using THUNDERBIRD® SYBR qPCR Mix (Toyobo) on the CFX Connect real-time system (Bio-Rad). All qPCR assays were performed using four internal replicates and at least three biological replicates under the following conditions: 95 °C for 60 s and 40 cycles of 95 °C for 15 s and 60 °C for 30 s. Relative gene expression levels were calculated using the 2^−ΔΔCt method.
Microinjections were performed under a Stemi 2000C microscope (Zeiss) using glass capillary injection needles and an Eppendorf Femtojet (Eppendorf) with a microcontroller (Narishige). To confirm the function of bovine insulin on hosts, 1 μg bovine insulin (Sigma-Aldrich, I0305000) was injected into the middle 3rd instar P. xylostella larvae. To identify the effect of each parasitic factor on hosts, 0.05 FE CvBV or 0.05 VRE venom was injected into the abdomen of the middle 3rd instar P. xylostella larva (Wang et al, [2018]; Yu et al, [2007]). 1 TE teratocytes’ content was microinjected into the early 4th instar P. xylostella larvae. To confirm the function of each synthetic sNPF peptide, 0.005 ng, 0.05 ng, or 0.5 ng of each peptide was injected into the middle 3rd instar P. xylostella larvae in a volume of 0.1 μl/per larva once per day for 3 consecutive days.

PxHK mRNA in the midgut = experiment: Ex vivo midgut incubation with sNPF and signalling inhibitors, PxHK mRNA; assay type: cell-based, Plutella xylostella; settings: Fig 6F
Experimental: The in vitro incubations of fat body or midgut were performed as previously described with minor modifications (Cheng et al, [2022]). The fat bodies and midguts from non-parasitised middle 4th instar P. xylostella larvae were collected in 0.5 mL of PBS. The collected tissues were then preincubated in culture dishes containing TNM-FH medium (HyClone) for 30 min. sNPF peptides or inhibitors were administered to isolated fat body and midgut in vitro using a modified method from a previous study (Oh et al, [2019]). 1 mM stock solution of pertussis toxin (PTX, Tocris Bioscience) or U73122 (MedChemExpress) was dissolved in DMSO (Sigma-Aldrich) and kept at −80 °C. 0.1 ng/µl PTX or 10 µM U73122 were then mixed with 20 µM sNPF-contained TNM-FH medium. Preincubated tissues were incubated in these mixtures at 25 °C for 1 h, followed by total RNA isolation and qPCR.

PxsNPFR [4] = experiment: Intracellular Ca2+ mobilisation (Fura-2/AM) in PxsNPFR-expressing HEK293 cells; assay type: cell-based, Plutella xylostella; settings: 2.5 μM Fura-2/AM, excitation 340/380 nm, 37 °C, result in words
Experimental: To establish a stable HEK293/PxsNPFR cell line, the pcDNA 3.1^(+)/PxsNPFR plasmid was transfected into the HEK293 cells using Lipofectamine 3000 (Invitrogen). Two days later, 800 μg/ml G418 (Sangon Biotech) was added to the culture medium to select cells that stably expressed the receptor. After three weeks, resistant clones were trypsinised in cloning cylinders and transferred to 12-well plastic plates for expansion.
To measure the intracellular calcium flux, the transfected cells HEK293/PxsNPFR were harvested with PBS solution containing 0.02% EDTA, rinsed twice with PBS, and resuspended in Hanks’ balanced salt solution containing 0.025% BSA. Cells were then loaded with 2.5 μM Fura-2/AM (Dojindo) for 30 min at 37 °C and washed twice in Hanks’ balanced saline solution. These cells were stimulated with the indicated concentrations of synthetic sNPF, and Hanks’ solution was used as a negative control. The calcium flux was measured using excitation at 340 nm and 380 nm on a SpectraMax iD5 Multi-Mode Microplate Reader (Molecular Devices) at 37 °C.

SVRSPSRRLRF-NH2 [sPxsNPF-1, synthetic short neuropeptide F-1 of Plutella xylostella]
DEGs common to sPxsNPF-1 and sCvsNPF sets ([1]; 157 transcripts in both sets): 3.6% | expression of genes involved in Gq activation (PLC, IP3) ([1]; RNA-seq after injection, words): significantly upregulated after sPxsNPF-1 injection | sNPF-induced PxHK expression after PxsNPFR knockdown (PxsNPFR [2]): abolished following dsPxsNPFR treatment | PxGP mRNA expression [3]: remained unaffected | PxHK mRNA expression [3]: upregulated | PxTPS mRNA expression [3]: remained unaffected | PxHK relative expression (PxHK mRNA in the midgut; sPxsNPF-1+PTX, Average of 5 replicates, SD 0.30, control DMSO average 1.00): 1.96 | PxHK relative expression (PxHK mRNA in the midgut; sPxsNPF-1+PTX, replicate 1): 2.33 | PxHK relative expression (PxHK mRNA in the midgut; sPxsNPF-1+PTX, replicate 2): 1.83 | PxHK relative expression (PxHK mRNA in the midgut; sPxsNPF-1+PTX, replicate 3): 1.61 | PxHK relative expression (PxHK mRNA in the midgut; sPxsNPF-1+PTX, replicate 4): 1.83 | PxHK relative expression (PxHK mRNA in the midgut; sPxsNPF-1+PTX, replicate 5): 2.18 | PxHK relative expression (PxHK mRNA in the midgut; sPxsNPF-1+U73122, Average of 5 replicates, SD 0.13, control DMSO average 1.00): 0.98 | PxHK relative expression (PxHK mRNA in the midgut; sPxsNPF-1+U73122, replicate 1): 1.03 | PxHK relative expression (PxHK mRNA in the midgut; sPxsNPF-1+U73122, replicate 2): 0.92 | PxHK relative expression (PxHK mRNA in the midgut; sPxsNPF-1+U73122, replicate 3): 1.06 | PxHK relative expression (PxHK mRNA in the midgut; sPxsNPF-1+U73122, replicate 4): 0.79 | PxHK relative expression (PxHK mRNA in the midgut; sPxsNPF-1+U73122, replicate 5): 1.11 | PxHK relative expression (PxHK mRNA in the midgut; sPxsNPF-1 without inhibitor, Average of 5 replicates, SD 0.18, control DMSO average 1.00): 1.73 | PxHK relative expression (PxHK mRNA in the midgut; sPxsNPF-1 without inhibitor, replicate 1): 1.68 | PxHK relative expression (PxHK mRNA in the midgut; sPxsNPF-1 without inhibitor, replicate 2): 1.93 | PxHK relative expression (PxHK mRNA in the midgut; sPxsNPF-1 without inhibitor, replicate 3): 1.52 | PxHK relative expression (PxHK mRNA in the midgut; sPxsNPF-1 without inhibitor, replicate 4): 1.60 | PxHK relative expression (PxHK mRNA in the midgut; sPxsNPF-1 without inhibitor, replicate 5): 1.89 | intracellular Ca2+ mobilisation (PxsNPFR [4]): elicited a rapid and transient increase in intracellular Ca^2+ mobilisation

From article PMC12992715, “Dual interference with host neuropeptide signaling allows parasitoid wasp to hijack host sugar metabolism” (The EMBO Journal, 2025)
